Where a name gives a salt, the structure may show the parent alone.
Tests used:
human factor XIa = molecular target: T1, human factor XIa (Homo sapiens, UniProt P03951); test: Measurement of FXIa inhibition (fluorogenic peptide substrate Boc-Glu(OBzl)-Ala-Arg-AMC); format: biochemical; settings: factor XIa from Kordia, 15 min preincubation, 30 min at 22° C., fluorescence
T1 construct: purchased Kordia
Procedure: The factor XIa inhibition of the inventive substances is determined using a biochemical test system which utilizes the reaction of a peptidic factor XIa substrate to determine the enzymatic activity of human factor XIa. Here, factor XIa cleaves from the peptic factor XIa substrate the C-terminal aminomethylcoumarin (AMC), the fluorescence of which is measured. The determinations are carried out in microtitre plates.
Test substances are dissolved in dimethyl sulphoxide and serially diluted in dimethyl sulphoxide (3000 μM to 0.0078 μM; resulting final concentrations in the test: 50 μM to 0.00013 μM). In each case 1 μl of the diluted substance solutions is placed into the wells of white microtitre plates from Greiner (384 wells). Subsequently, the following are added successively: 20 μl of assay buffer (50 mmol/l Tris buffer pH 7.4; 100 mmol/l sodium chloride; 5 mmol/l calcium chloride; 0.1% bovine serum albumin) and 20 μl of factor XIa from Kordia (0.45 nM in assay buffer). After 15 min of incubation, the enzyme reaction is started by addition of 20 μl of the factor XIa substrate Boc-Glu(OBzl)-Ala-Arg-AMC dissolved in assay buffer (10 μM in assay buffer) from Bachem, the mixture is incubated at room temperature (22° C.) for 30 min and fluorescence is then measured (excitation: 360 nm, emission: 460 nm). The measured emissions of the test mixtures with test substance are compared to those of control mixtures without test substance (only dimethyl sulphoxide instead of test substance in dimethyl sulphoxide), and the IC50 values are calculated from the concentration/activity relationships.

human and animal plasma = test: Determination of anticoagulatory activity: activated partial thromboplastin time (aPTT) in plasma; settings: concentration of test substance which brings about a 1.5-fold extension of the aPTT; plasma species not given
Procedure: The anticoagulatory activity of the test substances is determined in vitro in human and animal plasma (for example mouse, rat, rabbit, pig and dog plasma). To this end, blood is drawn off in a mixing ratio of sodium citrate/blood of 1:9 using a 0.11 molar sodium citrate solution as receiver. Immediately after the blood has been drawn off, it is mixed thoroughly and centrifuged at about 4000 g for 15 minutes. The supernatant is pipetted off.
The activated partial thromboolastin time (aPTT) is determined in the presence of varying concentrations of test substance or the corresponding solvent using a commercial test kit (C. K. Prest from Diagnostica Stago). The test compounds are incubated with the plasma and the PTT reagent (cephalin, kaolin) at 37° C. for 3 minutes. Coagulation is then started by addition of a 25 mM aqueous calcium chloride solution, and the time when coagulation occurs is determined. The concentration of test substance which brings about a 1.5-fold extension of the aPTT is determined.

T1 sequence (P03951 388-625 limits assumed): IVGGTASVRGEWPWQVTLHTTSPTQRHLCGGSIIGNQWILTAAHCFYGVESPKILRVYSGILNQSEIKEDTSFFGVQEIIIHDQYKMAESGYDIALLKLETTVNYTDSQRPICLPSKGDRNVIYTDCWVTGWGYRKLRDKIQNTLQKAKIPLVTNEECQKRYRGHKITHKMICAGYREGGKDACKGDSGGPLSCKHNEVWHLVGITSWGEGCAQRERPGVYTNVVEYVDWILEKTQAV
T1 sequence (P03951 19-387 partner limits assumed): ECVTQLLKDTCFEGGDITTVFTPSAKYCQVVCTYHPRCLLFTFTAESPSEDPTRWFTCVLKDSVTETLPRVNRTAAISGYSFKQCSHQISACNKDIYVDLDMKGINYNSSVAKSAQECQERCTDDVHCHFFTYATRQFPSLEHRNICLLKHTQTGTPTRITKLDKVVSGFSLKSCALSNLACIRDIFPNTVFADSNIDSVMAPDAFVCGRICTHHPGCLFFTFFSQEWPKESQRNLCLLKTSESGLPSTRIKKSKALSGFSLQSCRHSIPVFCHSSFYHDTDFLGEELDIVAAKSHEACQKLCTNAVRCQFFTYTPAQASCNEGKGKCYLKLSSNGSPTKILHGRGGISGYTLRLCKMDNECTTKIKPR

IC50 (human factor XIa)	SMILES	aPTT (human and animal plasma)
4.7 nM	Cc1cc(C(=O)N[C@H]2CCNC2=O)ccc1-c1ccc(C[C@H](NC(=O)[C@H]2CC[C@H](CN)CC2)C(=O)Nc2cc(F)c3oc(=O)[nH]c3c2)cc1 [Example 99, 4′-{(2S)-2-({[trans-4-(Aminomethyl)cyclohexyl]carbonyl}amino)-3-[(7-fluoro-2-oxo-2,3-dihydro-1,3-benzoxazol-5-yl)amino]-3-oxopropyl}-2-methyl-N-[(3S)-2-oxopyrrolidin-3-yl]biphenyl-4-carboxamide hydrochloride]	0.27 µmol/L
2.5 nM	Cc1cc(C(=O)N[C@@H]2CCNC2)ccc1-c1ccc(C[C@H](NC(=O)[C@H]2CC[C@H](CN)CC2)C(=O)Nc2ccc(-c3nn[nH]n3)cc2)cc1 [Example 8, 4′-[(2S)-2-({[trans-4-(Aminomethyl)cyclohexyl]carbonyl}amino)-3-oxo-3-{[4-(2H-tetrazol-5-yl)phenyl]amino}propyl]-2-methyl-N-[(3R)-pyrrolidin-3-yl]biphenyl-4-carboxamide hydrochloride]	0.09 µmol/L
3.6 nM	Cc1cc(C(=O)NC2CCN(CC(F)(F)F)CC2)ccc1-c1ccc(C[C@H](NC(=O)[C@H]2CC[C@H](CN)CC2)C(=O)Nc2ccc(-c3nn[nH]n3)cc2)cc1 [Example 46, 4′-[(2S)-2-({[trans-4-(Aminomethyl)cyclohexyl]carbonyl}amino)-3-oxo-3-{[4-(2H-tetrazol-5-yl)phenyl]amino}propyl]-2-methyl-N-[1-(2,2,2-trifluoroethyl)piperidin-4-yl]biphenyl-4-carboxamide hydrochloride]	0.22 µmol/L
1.6 nM	Cc1cc(C(=O)NC2CCC(N(C)C)CC2)ccc1-c1ccc(C[C@H](NC(=O)[C@H]2CC[C@H](CN)CC2)C(=O)Nc2ccc(-c3nn[nH]n3)cc2)cc1 (stereo partly drawn) [Example 70, 4′-[(2S)-2-({[trans-4-(Aminomethyl)cyclohexyl]carbonyl}amino)-3-oxo-3-{[4-(2H-tetrazol-5-yl)phenyl]amino}propyl]-N-[4-(dimethylamino)cyclohexyl]-2-methylbiphenyl-4-carboxamide hydrochloride]	–
2.9 nM	CNC(=O)c1ccc(-c2ccc(C[C@H](NC(=O)[C@H]3CC[C@H](CN)CC3)C(=O)Nc3ccc(-c4nn[nH]n4)cc3)cc2)c(C)c1 [Example 19, 4′-[(2S)-2-({[trans-4-(Aminomethyl)cyclohexyl]carbonyl}amino)-3-oxo-3-{[4-(2H-tetrazol-5-yl)phenyl]amino}propyl]-N,2-dimethylbiphenyl-4-carboxamide]	–
1.8 nM	Cc1cc(C(=O)NC2CCC(O)C2)ccc1-c1ccc(CC(NC(=O)C2CCC(CN)CC2)C(=O)Nc2ccc(-c3nnn[nH]3)c(F)c2)cc1 [Example 92, 4′-[(2S)-2-({[trans-4-(Aminomethyl)cyclohexyl]carbonyl}amino)-3-{[3-fluoro-4-(2H-tetrazol-5-yl)phenyl]amino}-3-oxopropyl]-N-(3-hydroxycyclopentyl)-2-methylbiphenyl-4-carboxamide hydrochloride]	–
3.4 nM	Cc1cc(C(=O)N[C@H]2CCCN(C)C2)ccc1-c1ccc(C[C@H](NC(=O)[C@H]2CC[C@H](CN)CC2)C(=O)Nc2ccc(-c3nn[nH]n3)cc2)cc1 [Example 73, 4′-[(2S)-2-({[trans-4-(Aminomethyl)cyclohexyl]carbonyl}amino)-3-oxo-3-{[4-(2H-tetrazol-5-yl)phenyl]amino}propyl]-2-methyl-N-[(3S)-1-methylpiperidin-3-yl]biphenyl-4-carboxamide hydrochloride]	–
–	Cc1cc(C(=O)NC2CCN(C)CC2)ccc1-c1ccc(C[C@H](NC(=O)[C@H]2CC[C@H](CN)CC2)C(=O)Nc2ccc(-c3nc(C(F)(F)C(F)(F)C(=O)O)n[nH]3)cc2)cc1 [Example 130, 3-[5-(4-{[(2S)-2-({[trans-4-(Aminomethyl)cyclohexyl]carbonyl}amino)-3-{2′-methyl-4′-[(1-methylpiperidin-4-yl)carbamoyl]biphenyl-4-yl}propanoyl]amino}phenyl)-1H-1,2,4-triazol-3-yl]-2,2,3,3-tetrafluoropropanoic acid]	0.12 µmol/L
29 nM	Cc1cc(C(=O)NC(CN(C)C)CN(C)C)ccc1-c1ccc(C[C@H](NC(=O)[C@H]2CC[C@H](CN)CC2)C(=O)Nc2ccc(-c3nn[nH]n3)cc2)cc1 [Example 66, 4′-[(2S)-2-({[trans-4-(Aminomethyl)cyclohexyl]carbonyl}amino)-3-oxo-3-{[4-(2H-tetrazol-5-yl)phenyl]amino}propyl]-N-[1,3-bis(dimethylamino)propan-2-yl]-2-methylbiphenyl-4-carboxamide hydrochloride]	–
–	Cc1cc(C(=O)N[C@H]2CC[C@H](O)CC2)ccc1-c1ccc(CC(NC(=O)[C@H]2CC[C@H](CN)CC2)C(=O)Nc2ccc(-c3nnc(C(F)(F)C(F)(F)C(=O)O)[nH]3)cc2)cc1 (mixture of isomers) [Example 131, 3-[5-(4-{[2-({[trans-4-(Aminomethyl)cyclohexyl]carbonyl}amino)-3-{4′-[(trans-4-hydroxycyclohexyl)carbamoyl]-2′-methylbiphenyl-4-yl}propanoyl]amino}phenyl)-4H-1,2,4-triazol-3-yl]-2,2,3,3-tetrafluoropropanoic acid (enantiomer mixture)]	0.2 µmol/L
41 nM	Cc1cc(C(=O)NC2CCNCC2)ccc1-c1ccc(C[C@H](NC(=O)[C@H]2CC[C@H](CN)CC2)C(=O)Nc2ccc(-c3nnc(CC(C)C)[nH]3)cc2)cc1 [Example 58, 4′-[(2S)-2-({[trans-4-(Aminomethyl)cyclohexyl]carbonyl}amino)-3-{[4-(3-isobutyl-4H-1,2,4-triazol-5-yl)phenyl]amino}-3-oxopropyl]-2-methyl-N-(piperidin-4-yl)biphenyl-4-carboxamide hydrochloride]	–
2 nM	Cc1cc(C(=O)NC2CCNCC2)ccc1-c1ccc(C[C@H](NC(=O)[C@H]2CC[C@H](CN)CC2)C(=O)Nc2ccc(-c3nn[nH]n3)cc2)cc1 [Example 1, 4′-[(2S)-2-({[trans-4-(Aminomethyl)cyclohexyl]carbonyl}amino)-3-oxo-3-{[4-(2H-tetrazol-5-yl)phenyl]amino}propyl]-2-methyl-N-(piperidin-4-yl)biphenyl-4-carboxamide hydrochloride]	–

SMILES	IC50 (human factor XIa)	aPTT (human and animal plasma)
Cc1cc(C(=O)NC2CCC(N(C)C)CC2)ccc1-c1ccc(C[C@H](NC(=O)[C@H]2CC[C@H](CN)CC2)C(=O)Nc2ccc3[nH]c(C(F)(F)F)nc3c2)cc1 (stereo partly drawn) [Example 77, 4′-[(2S)-2-({[trans-4-(Aminomethyl)cyclohexyl]carbonyl}amino)-3-oxo-3-{[2-(trifluoromethyl)-1H-benzimidazol-5-yl]amino}propyl]-N-[4-(dimethylamino)cyclohexyl]-2-methylbiphenyl-4-carboxamide hydrochloride]	8.4 nM	0.22 µmol/L
Cc1cc(C(=O)NC2CCNCC2)ccc1-c1ccc(C[C@H](NC(=O)[C@H]2CC[C@H](CN)CC2)C(=O)Nc2ccc3[nH]c(=O)[nH]c3c2)cc1 [Example 53, 4′-{(2S)-2-({[trans-4-(Aminomethyl)cyclohexyl]carbonyl}amino)-3-oxo-3-[(2-oxo-2,3-dihydro-1H-benzimidazol-5-yl)amino]propyl}-2-methyl-N-(piperidin-4-yl)biphenyl-4-carboxamide hydrochloride]	16 nM	0.16 µmol/L
COCCOCCOCCOCCNC(=O)c1ccc(-c2ccc(C[C@H](NC(=O)[C@H]3CC[C@H](CN)CC3)C(=O)Nc3ccc(-c4nn[nH]n4)cc3)cc2)c(Cl)c1 [Example 26, 4′-[(2S)-2-({[trans-4-(Aminomethyl)cyclohexyl]carbonyl}amino)-3-oxo-3-{[4-(2H-tetrazol-5-yl)phenyl]amino}propyl]-2-chloro-N-(2,5,8, 11-tetraoxatridecan-13-yl)biphenyl-4-carboxamide hydrochloride]	2.4 nM	0.19 µmol/L
Cc1cc(C(=O)N[C@H]2CC[C@H](O)CC2)ccc1-c1ccc(C[C@H](NC(=O)[C@H]2CC[C@H](CN)CC2)C(=O)Nc2ccc(-c3nnc(C(F)(F)C(F)(F)C(=O)O)[nH]3)cc2)cc1 (single isomer, unassigned; enantiomer 1) [Example 168]	0.5 nM	–

Reference: US20160272617A1, “SUBSTITUTED PHENYLALANINE DERIVATIVES” (BAYER PHARMA AKTIENGESELLSCHAFT, priority 2013, published 2016)
